Experimental data taken from paper PMC5750214 (Nature Communications, 2018).
Residue numbers refer to the chain shown, from its start.

Legend:
[1] = target: T1, human AT1 receptor (angiotensin II type 1 receptor) (Homo sapiens, UniProt P30556); experiment: Ca2+ flux, Fluo-3-AM, HEK293A cells; type: cell-based
T1 construct: gene AGTR1; full-length receptor transfected in HEK293A cells; AT1 (human)-mCherry plasmid for NFAT assay
T1 sequence (P30556 1-359): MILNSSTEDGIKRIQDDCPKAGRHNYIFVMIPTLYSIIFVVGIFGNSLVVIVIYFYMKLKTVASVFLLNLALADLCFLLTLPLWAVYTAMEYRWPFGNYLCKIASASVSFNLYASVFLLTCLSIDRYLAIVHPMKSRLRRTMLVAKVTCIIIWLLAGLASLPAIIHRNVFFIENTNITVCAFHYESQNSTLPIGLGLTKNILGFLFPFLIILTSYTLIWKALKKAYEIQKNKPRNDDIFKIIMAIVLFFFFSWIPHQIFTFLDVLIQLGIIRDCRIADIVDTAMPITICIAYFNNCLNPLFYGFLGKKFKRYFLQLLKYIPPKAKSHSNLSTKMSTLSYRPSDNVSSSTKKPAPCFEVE

[2] = target: T2, human AT1 receptor (angiotensin II type 1 receptor) (Homo sapiens, UniProt P30556, R167A); experiment: […]-Ang II competition binding, membranes
T2 construct: gene AGTR1; full-length receptor transfected in HEK293A cells; AT1 (human)-mCherry plasmid for NFAT assay
T2 sequence (P30556 1-359 R167A): T1 sequence (P30556 1-359) with R167A

[3] = target: T1, human AT1 receptor (angiotensin II type 1 receptor); experiment: […]-Ang II competition binding, membranes
[4] = target: T3, human AT1 receptor (angiotensin II type 1 receptor) (Homo sapiens, UniProt P30556, C289S); experiment: […]-Ang II competition binding, membranes
T3 construct: gene AGTR1; full-length receptor transfected in HEK293A cells; AT1 (human)-mCherry plasmid for NFAT assay
T3 sequence (P30556 1-359 C289S): T1 sequence (P30556 1-359) with C289S

SMILES: NC(CCS)C(=O)O (racemic) [Hcy]
- EC50 [1]: 81.3 µM
- Ki [2]: 92 µM
- Ki [3]: 10.7 µM
- Ki [4]: 159 µM
